According to US20190142971A1, “FORMULATION AND DELIVERY OF MODIFIED NUCLEOSIDE, NUCLEOTIDE, AND NUCLEIC ACID COMPOSITIONS” (ModernaTX, Inc., priority 2013, published 2019):

Assays:
Sprague-Dawley rats = test: Example 71: toxicity study of luciferase mRNA in rats: weight, electrolytes, hematology, WBC, serum chemistry, liver proteins (Tables 104-110); type: in vivo; conditions: for Mean weight Gain / Weight Gain: 7 days after administration; for ALP / ALT / AST / Albumin / Basophils (BASO %) / Bicarbonate / CPK / Calcium / Chloride / Eosinophils (EOS %) / Globulin / HCT / HGB / Lymphocytes (LYM %) / MCH / MCV / Monocytes (MON %) / Neutrophil (NEU-SEG %) / Phosphorus / Potassium / RBC / Sodium / Total Protein / WBC / MCHC: after 7 days
Method: A control group were administered the formulation buffer (F. Buffer). After 7 days the rats were sacrificed.
The rats were weighed before the administration of mRNA and 7 days after administration. […] Each group analyzed consumed about the same amount of food over the course of the study.
After 7 days the rats were sacrificed and samples were taken to determine electrolytes. The calcium, bicarbonate, potassium, phosphorus, chloride and sodium levels in each group were analyzed.
After 7 days the rats were sacrificed and samples were taken to determine hematology levels. The red blood cell (RBC), hematocrit (HGT), mean corpuscular volume (MCV), hemoglobin (HGB), mean corpuscular hemoglobin (MCH) and mean corpuscular hemoglobin concentration (MCHC) was determined for each group.
After 7 days the rats were sacrificed and samples were taken to determine white blood cell count. Neutrophils (percent segmented neutrophils), monocytes, basophils, lymphocytes, eosinophil and white blood cell (WBC) was determined for each group.
After 7 days the rats were sacrificed and samples were taken to determine serum chemistry. The alkaline phosphatase (ALP), aspartate transaminase (AST), alanine transaminase (ALT) and creatine phosphokinase (CPK) was determined for each group.
After 7 days the rats were sacrificed and samples were taken to determine liver protein levels. The level of albumin, globulin and total protein was determined for each group.
Doses as high as 30 times the effective dose appear to be safe from this analysis.

[1] = Example 61: storage stability of G-CSF mRNA, gel electrophoresis (Bio-Rad EXPERION); type: physicochemical
Method: Stability experiments were conducted to obtain a better understanding of storage conditions to retain the integrity of modified RNA. […] After the mRNA had been stored for 0 hours, 2 hours, 6 hours, 24 hours, 48 hours, 5 days and 14 days, the mRNA was analyzed by gel electrophoresis using a Bio-Rad EXPERION™ system. The modified, unmodified and lipoplexed G-CSF mRNA was also stored in RNASTABLE® (Biomatrica, Inc. San Diego, Calif.) at 40° C. or water at −80° C. or 40° C. for 35 days before being analyzed by gel electrophoresis.
mRNA samples stored at 4° C., 25° C. and 37° C. were stored in 1×TE buffer or the formulation buffer (150 mM sodium chloride, 2 mM calcium chloride, 2 mM phosphate, 0.5 mM EDTA at a pH of 6.5). The mRNA stored at 4° C. was stable to at least 60 days in both the TE and formulation buffer. At 25° C. the mRNA in formulation buffer was stable out to 14 days and the TE buffer was stable out to at least 6 days. Storage of mRNA in the formulation buffer at 37° C. was stable to 6 days compared to the TE buffer which was stable only until 4 days.

Luciferase: luciferase mRNA, SEQ ID NO: 14, Cap1, fully modified with 5-methylcytosine and pseudouridine
Mean weight Gain (Sprague-Dawley rats; 100 ug): 16.875 g
Weight Gain (Sprague-Dawley rats; 100 ug): 6.5%
ALP (Sprague-Dawley rats; 100 ug): 144.4 IU/L
ALT (Sprague-Dawley rats; 100 ug): 60.8 IU/L
AST (Sprague-Dawley rats; 100 ug): 198.3 IU/L
Albumin (Sprague-Dawley rats; 100 ug): 3.3 g/dL
Basophils (BASO %) (Sprague-Dawley rats; 100 ug): 0.4%
Bicarbonate (Sprague-Dawley rats; 100 ug): 19.9 mEg/L
CPK (Sprague-Dawley rats; 100 ug): 488.1 IU/L
Calcium (Sprague-Dawley rats; 100 ug): 9.8 mg/dL
Chloride (Sprague-Dawley rats; 100 ug): 101.0 mEg/L
Eosinophils (EOS %) (Sprague-Dawley rats; 100 ug): 1.3%
Globulin (Sprague-Dawley rats; 100 ug): 2.5 g/dL
HCT (Sprague-Dawley rats; 100 ug): 44.1%
HGB (Sprague-Dawley rats; 100 ug): 14.7 g/dL
Lymphocytes (LYM %) (Sprague-Dawley rats; 100 ug): 85.9%
MCH (Sprague-Dawley rats; 100 ug): 19.5 pg
MCV (Sprague-Dawley rats; 100 ug): 58.7 fL
Monocytes (MON %) (Sprague-Dawley rats; 100 ug): 2.0%
Neutrophil (NEU-SEG %) (Sprague-Dawley rats; 100 ug): 10.6%
Phosphorus (Sprague-Dawley rats; 100 ug): 8.3 mg/dL
Potassium (Sprague-Dawley rats; 100 ug): 4.7 mEg/L
RBC (Sprague-Dawley rats; 100 ug): 7.5 Million/uL
Sodium (Sprague-Dawley rats; 100 ug): 139.6 mEg/L
Total Protein (Sprague-Dawley rats; 100 ug): 5.8 g/dL
WBC (Sprague-Dawley rats; 100 ug): 14 Thous./uL
Mean weight Gain (Sprague-Dawley rats; 300 ug): 22.125 g
Weight Gain (Sprague-Dawley rats; 300 ug): 8.3%
ALP (Sprague-Dawley rats; 300 ug): 169.5 IU/L
ALT (Sprague-Dawley rats; 300 ug): 49.3 IU/L
AST (Sprague-Dawley rats; 300 ug): 200.3 IU/L
Albumin (Sprague-Dawley rats; 300 ug): 3.2 g/dL
Basophils (BASO %) (Sprague-Dawley rats; 300 ug): 0.4%
Bicarbonate (Sprague-Dawley rats; 300 ug): 23.3 mEg/L
CPK (Sprague-Dawley rats; 300 ug): 968.3 IU/L
Calcium (Sprague-Dawley rats; 300 ug): 9.8 mg/dL
Chloride (Sprague-Dawley rats; 300 ug): 100.5 mEg/L
Eosinophils (EOS %) (Sprague-Dawley rats; 300 ug): 1.0%
Globulin (Sprague-Dawley rats; 300 ug): 2.4 g/dL
HCT (Sprague-Dawley rats; 300 ug): 43.5%
HGB (Sprague-Dawley rats; 300 ug): 14.5 g/dL
Lymphocytes (LYM %) (Sprague-Dawley rats; 300 ug): 83.6%
MCH (Sprague-Dawley rats; 300 ug): 19.8 pg
MCHC (Sprague-Dawley rats; 300 ug): 33.3 g/dL
MCV (Sprague-Dawley rats; 300 ug): 59.6 fL
Monocytes (MON %) (Sprague-Dawley rats; 300 ug): 2.8%
Neutrophil (NEU-SEG %) (Sprague-Dawley rats; 300 ug): 12.0%
Phosphorus (Sprague-Dawley rats; 300 ug): 8.2 mg/dL
Potassium (Sprague-Dawley rats; 300 ug): 4.4 mEg/L
RBC (Sprague-Dawley rats; 300 ug): 7.3 Million/uL
Sodium (Sprague-Dawley rats; 300 ug): 139.6 mEg/L
Total Protein (Sprague-Dawley rats; 300 ug): 5.6 g/dL
WBC (Sprague-Dawley rats; 300 ug): 10.2 Thous./uL
Mean weight Gain (Sprague-Dawley rats; 1000 ug): 19 g
Weight Gain (Sprague-Dawley rats; 1000 ug): 6.95%
ALP (Sprague-Dawley rats; 1000 ug): 150.5 IU/L
ALT (Sprague-Dawley rats; 1000 ug): 51.5 IU/L
AST (Sprague-Dawley rats; 1000 ug): 189.8 IU/L
Albumin (Sprague-Dawley rats; 1000 ug): 3.2 g/dL
Bicarbonate (Sprague-Dawley rats; 1000 ug): 22.5 mEg/L
CPK (Sprague-Dawley rats; 1000 ug): 744 IU/L
Calcium (Sprague-Dawley rats; 1000 ug): 10.6 mg/dL
Chloride (Sprague-Dawley rats; 1000 ug): 101.0 mEg/L
Eosinophils (EOS %) (Sprague-Dawley rats; 1000 ug): 1.5%
Globulin (Sprague-Dawley rats; 1000 ug): 2.7 g/dL
HCT (Sprague-Dawley rats; 1000 ug): 42.5%
HGB (Sprague-Dawley rats; 1000 ug): 14.2 g/dL
Lymphocytes (LYM %) (Sprague-Dawley rats; 1000 ug): 83.0%
MCH (Sprague-Dawley rats; 1000 ug): 19.55 pg
MCHC (Sprague-Dawley rats; 1000 ug): 33.3 g/dL
MCV (Sprague-Dawley rats; 1000 ug): 58.8 fL
Monocytes (MON %) (Sprague-Dawley rats; 1000 ug): 2.3%
Neutrophil (NEU-SEG %) (Sprague-Dawley rats; 1000 ug): 12.8%
Phosphorus (Sprague-Dawley rats; 1000 ug): 9.1 mg/dL
Potassium (Sprague-Dawley rats; 1000 ug): 5.2 mEg/L
RBC (Sprague-Dawley rats; 1000 ug): 7.2 Million/uL
Sodium (Sprague-Dawley rats; 1000 ug): 138.8 mEg/L
Total Protein (Sprague-Dawley rats; 1000 ug): 5.9 g/dL
WBC (Sprague-Dawley rats; 1000 ug): 10.7 Thous./uL
Mean weight Gain (Sprague-Dawley rats; 3 × 1000 ug): 20.375 g
Weight Gain (Sprague-Dawley rats; 3 × 1000 ug): 7.7%
ALP (Sprague-Dawley rats; 3 × 1000 ug): 152.0 IU/L
ALT (Sprague-Dawley rats; 3 × 1000 ug): 45.9 IU/L
Albumin (Sprague-Dawley rats; 3 × 1000 ug): 3.4 g/dL
Basophils (BASO %) (Sprague-Dawley rats; 3 × 1000 ug): 0.1%
Bicarbonate (Sprague-Dawley rats; 3 × 1000 ug): 22.6 mEg/L
CPK (Sprague-Dawley rats; 3 × 1000 ug): 481.1 IU/L
Calcium (Sprague-Dawley rats; 3 × 1000 ug): 10.2 mg/dL
Chloride (Sprague-Dawley rats; 3 × 1000 ug): 100.4 mEg/L
Eosinophils (EOS %) (Sprague-Dawley rats; 3 × 1000 ug): 0.9%
Globulin (Sprague-Dawley rats; 3 × 1000 ug): 2.6 g/dL
HCT (Sprague-Dawley rats; 3 × 1000 ug): 43.5%
HGB (Sprague-Dawley rats; 3 × 1000 ug): 14.4 g/dL
Lymphocytes (LYM %) (Sprague-Dawley rats; 3 × 1000 ug): 85.5%
MCH (Sprague-Dawley rats; 3 × 1000 ug): 20.0 pg
MCHC (Sprague-Dawley rats; 3 × 1000 ug): 33.1 g/dL
MCV (Sprague-Dawley rats; 3 × 1000 ug): 60.6 fL
Monocytes (MON %) (Sprague-Dawley rats; 3 × 1000 ug): 2.0%
Neutrophil (NEU-SEG %) (Sprague-Dawley rats; 3 × 1000 ug): 11.6%
Phosphorus (Sprague-Dawley rats; 3 × 1000 ug): 8.11 mg/dL
Potassium (Sprague-Dawley rats; 3 × 1000 ug): 4.6 mEg/L
RBC (Sprague-Dawley rats; 3 × 1000 ug): 7.2 Million/uL
Sodium (Sprague-Dawley rats; 3 × 1000 ug): 138.8 mEg/L
Total Protein (Sprague-Dawley rats; 3 × 1000 ug): 6.0 g/dL
WBC (Sprague-Dawley rats; 3 × 1000 ug): 10.9 Thous./uL
adverse effects of high doses (Sprague-Dawley rats; 7 days): do not result in adverse effects
blood count and clotting factors (Sprague-Dawley rats; 7 days): no change in blood count or blood clotting factors
electrolytes (Sprague-Dawley rats; 7 days): no change in electrolytes
liver enzyme and liver protein production (Sprague-Dawley rats; 7 days): no change seen in liver enzyme or liver protein production
weight gain and behaviour (Sprague-Dawley rats; 7 days): All animals continued to gain weight and behave normally
white blood cells (Sprague-Dawley rats; 7 days): no increase in white blood cells
dose that appears to be safe (Sprague-Dawley rats; rat, in vivo): 30 times the effective dose
histopathology at the site of injection (Sprague-Dawley rats; rat, in vivo): only minimal inflammation at the site of injection

B1: G-CSF: modified mRNA encoding human G-CSF, SEQ ID NO: 4, Cap1, fully modified with 5-methylcytosine and pseudouridine; LNP-formulated in Examples 16-22 (nucleic acid)
chain: GGGAAAUAAGAGAGAAAAGAAGAGUAAGAAGAAAUAUAAGAGCCACCAUGGCCGGUCCCGCGACCCAAAGCCCCAUGAAACUUAUGGCCCUGCAGUUGCUGCUUUGGCACUCGGCCCUCUGGACAGUCCAAGAAGCGACUCCUCUCGGACCUGCCUCAUCGUUGCCGCAGUCAUUCCUUUUGAAGUGUCUGGAGCAGGUGCGAAAGAUUCAGGGCGAUGGAGCCGCACUCCAAGAGAAGCUCUGCGCGACAUACAAACUUUGCCAUCCCGAGGAGCUCGUACUGCUCGGGCACAGCUUGGGGAUUCCCUGGGCUCCUCUCUCGUCCUGUCCGUCGCAGGCUUUGCAGUUGGCAGGGUGCCUUUCCCAGCUCCACUCCGGUUUGUUCUUGUAUCAGGGACUGCUGCAAGCCCUUGAGGGAAUCUCGCCAGAAUUGGGCCCGACGCUGGACACGUUGCAGCUCGACGUGGCGGAUUUCGCAACAACCAUCUGGCAGCAGAUGGAGGAACUGGGGAUGGCACCCGCGCUGCAGCCCACGCAGGGGGCAAUGCCGGCCUUUGCGUCCGCGUUUCAGCGCAGGGCGGGUGGAGUCCUCGUAGCGAGCCACCUUCAAUCAUUUUUGGAAGUCUCGUACCGGGUGCUGAGACAUCUUGCGCAGCCGUGAAGCGCUGCCUUCUGCGGGGCUUGCCUUCUGGCCAUGCCCUUCUUCUCUCCCUUGCACCUGUACCUCUUGGUCUUUGAAUAAAGCCUGAGUAGGAAG
modifications: Cap1, 5-methylcytosine, pseudouridine
freeze/thaw cycles tolerated [1]: 12 cycles
stable out to ([1]; stored at 25° C., with or without lipoplex): 120 h
stable out to ([1]; stored at 37° C.): 24 h
stable out to ([1]; stored at 50° C.): 6 h
